Data reported in patent publication US20260078103A1, “ISOQUINOLONES AS PI3K INHIBITORS” (OnKure, Inc., priority 2022, published 2026).
Read-outs that look alike come from different tables or passages of the source.

What was measured:
Assay type in all cases: cell-based
[1] = tested on: T47D cells expressing mutant PI3Ka (H1047R); test: In vitro cell proliferation, T47D cells (CellTiter-Glo); settings: inhibition of proliferation, read-out: Avg T-47D EC50
Method in brief: (§1)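 T47D (PI3Kα H1047R; RPMI, 10% FBS, insulin 0.2 units/mL) or SKBR3 (WT PI3Kα; McCoys 5a, 10% FBS) cells seeded at 1,500 cells/well on 10-point compound dilutions, grown 72 h at 37 °C. CellTiter-Glo luminescence; inhibition normalised to 0.1% DMSO and 10 uM alpelisib, EC50 from four-parameter fit.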

[2] = tested on: SKBR3 cells express WT PI3Ka; test: In vitro cell proliferation, SKBR3 cells (CellTiter-Glo); settings: inhibition of proliferation
Method in brief: as §1

[3] = tested on: phosphorylation of AKT (pAKT) in T47D cells expressing mutant PI3Ka (H1047R); test: In vitro cell pAKT (Ser473) HTRF, T47D cells
Method in brief: (§2)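 T47D cells (RPMI, 10% FBS, 0.2 units/mL insulin) or SKBR3 cells (McCoy's 5a, 10% FBS) were seeded onto 10-point compound dilutions and incubated 6 h at 37 °C. After lysis, pAKT was detected overnight by HTRF (Eu cryptate/d2). IC50 was fitted from % inhibition relative to 0.1% DMSO and 10 uM alpelisib controls.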

[4] = tested on: phosphorylation of AKT (pAKT) in SKBR3 cells express WT PI3Ka; test: In vitro cell pAKT (Ser473) HTRF, SKBR3 cells; settings: cellular pAKT
Method in brief: as §2

[5] = cellular pAKT, T47D cells, mutant PI3Ka (H1047R), 6 hours; read-out: Avg T-47D IC50
[6] = Homo sapiens, T47D, 6 h, cellular pAKT, T47D cells, mutant PI3Ka (H1047R), 6 hours; read-out: Avg T-47D IC50

EC50 ([1]; 72 hours) [µM]	EC50 ([2]; 72 hours) [µM]	IC50 [3, 5] [µM]	IC50 ([4]; 6 hours) [µM]	EC50 ([1]; Homo sapiens, T47D, 72 h) [µM]	EC50 ([2]; Homo sapiens, SK-BR-3, 72 h) [µM]	IC50 [3, 6] [µM]	IC50 ([4]; Homo sapiens, SK-BR-3, 6 h) [µM]	Compound	IC50 ([3]; read-out: Avg T-47D IC50; cellular pAKT, T47D cells, mutant PI3Ka (H1047R), 6 hours) [µM]
0.001 to 0.5	> 15	0.001 to 0.5	> 15	–	–	–	–	C[C@@H](Nc1cccc(F)c1C(=O)O)c1cc(F)cc2c(=O)n(C)c(-c3cnc(OC4CC4)c(F)c3)cc12 [Example 390]	–
–	–	–	–	0.001 to 0.5	2 to 15	0.001 to 0.5	0.5 to 2	Cc1ccc(N2CCN(c3cc4c([C@@H](C)Nc5ccccc5C(=O)O)cc(F)cc4c(=O)n3C)CC2)cn1 [Example 353]	–
–	–	–	–	0.001 to 0.5	2 to 15	0.001 to 0.5	> 15	Cc1cc([C@@H](C)Nc2ccccc2C(=O)O)c2cc(N3CC[C@]4(CCCN(CC(F)(F)F)C4)C3)n(C)c(=O)c2c1 [Example 99]	–
–	–	–	–	0.001 to 0.5	> 15	0.001 to 0.5	> 15	C[C@@H](Nc1ccccc1C(=O)O)c1cc(F)cc2c(=O)n(C)c(C3C[C@@H]3C(F)(F)F)cc12 (single isomer, unassigned) [Example 451]	–
–	–	–	–	0.001 to 0.5	> 15	0.001 to 0.5	> 15	C[C@@H](Nc1ccccc1C(=O)O)c1cc(F)cc2c(=O)n(C)c(-c3cnc(OC4CC4)c(F)c3)cc12 [Example 458]	–
–	–	–	–	0.5 to 2	> 15	0.001 to 0.5	> 15	Cc1cc([C@@H](C)Nc2ccccc2C(=O)O)c2cc(-c3cnc4occc4c3)n(C)c(=O)c2c1 [Example 270]	–
0.001 to 0.5	> 15	0.001 to 0.5	> 15	–	–	–	–	CC(Nc1ccccc1C(=O)O)c1cc(F)cc2c(=O)n(C)c(-c3ccc(OCC(F)F)nc3)cc12 (stereo not drawn) [Example 462]	–
0.001 to 0.5	> 15	0.001 to 0.5	> 15	–	–	–	–	Cc1cc([C@@H](C)Nc2ccccc2C(=O)O)c2cc(N3CCN(c4cccc(Cl)c4)CC3)n(C)c(=O)c2c1 [Example 160]	–
–	–	–	–	0.001 to 0.5	> 15	0.001 to 0.5	> 15	CCON1CCN(c2cc3c([C@@H](C)Nc4cccc(F)c4C(=O)O)cc(C)cc3c(=O)n2C)CC1 [Example 350]	–
–	–	–	–	0.001 to 0.5	> 15	0.001 to 0.5	> 15	COc1ncc(-c2cc3c([C@@H](C)Nc4ccccc4C(=O)O)cc(C)cc3c(=O)n2C)cn1 [Example 234]	–
–	–	–	–	0.001 to 0.5	> 15	0.001 to 0.5	2 to 15	Cc1ncc(F)cc1-c1ncc(-c2cc3c([C@@H](C)Nc4cccc(F)c4C(=O)O)cc(F)cc3c(=O)n2C)cc1F [Example 440]	–
–	–	–	–	0.001 to 0.5	> 15	0.001 to 0.5	> 15	C[C@@H](Nc1ccccc1C(=O)O)c1cc(F)cc2c(=O)n(C)c(C3CC3)cc12 [Example 455]	–
–	–	–	–	0.001 to 0.5	> 15	0.001 to 0.5	> 15	Cc1cc([C@@H](C)Nc2ccccc2C(=O)O)c2cc(-c3cnc(CC(F)(F)F)nc3)n(C)c(=O)c2c1 [Example 348]	–
–	–	–	–	0.001 to 0.5	> 15	0.001 to 0.5	> 15	Cc1cc([C@@H](C)Nc2cccc(F)c2C(=O)O)c2cc(-c3ccc(C(C)(C)F)nc3)n(C)c(=O)c2c1 [Example 326]	–
–	–	–	–	0.001 to 0.5	> 15	0.001 to 0.5	> 15	CC(C)c1ncc(-c2cc3c([C@@H](C)Nc4ccccc4C(=O)O)cc(Cl)cc3c(=O)n2C)cn1 [Example 337]	–
0.5 to 2	> 15	0.001 to 0.5	> 15	–	–	–	–	Cc1cc([C@@H](C)Nc2cccc(F)c2C(=O)O)c2cc(C3CC3(F)F)n(C)c(=O)c2c1 (single isomer, unassigned) [Example 421]	–
0.5 to 2	–	–	–	–	> 15	0.001 to 0.5	> 15	Cc1cc([C@@H](C)Nc2ccccc2C(=O)O)c2cc(N3CC4CC3CN4CC(F)(F)F)n(C)c(=O)c2c1 (single isomer, unassigned) [Example 211]	–

EC50 ([1]; 72 hours) [µM]	EC50 ([2]; 72 hours) [µM]	IC50 [3, 5] [µM]	IC50 ([4]; 6 hours) [µM]	EC50 ([1]; Homo sapiens, T47D, 72 h) [µM]	EC50 ([2]; Homo sapiens, SK-BR-3, 72 h) [µM]	IC50 [3, 6] [µM]	IC50 ([4]; Homo sapiens, SK-BR-3, 6 h) [µM]	Compound	IC50 ([3]; read-out: Avg T-47D IC50; cellular pAKT, T47D cells, mutant PI3Ka (H1047R), 6 hours) [µM]
> 15	> 15	2 to 15	> 15	–	–	–	–	Cc1cc(C(C)Nc2ccccc2C(=O)O)c2cc(N3CCC4(CCCCO4)CC3)n(C)c(=O)c2c1 (single isomer, unassigned) [Example 169]	–
–	–	–	–	0.001 to 0.5	> 15	0.001 to 0.5	2 to 15	Cc1ncc(N2CCN(c3cc4c([C@@H](C)Nc5cccc(F)c5C(=O)O)cc(F)cc4c(=O)n3C)CC2)s1 [Example 477]	–
–	–	–	–	2 to 15	> 15	0.001 to 0.5	> 15	Cc1cc(C(C)Nc2ccccc2C(=O)O)c2cc(N3CCC4(CCC4)CC3)n(C)c(=O)c2c1 (stereo not drawn) [Example 63]	–
–	–	–	–	0.5 to 2	> 15	0.5 to 2	> 15	Cc1cc([C@@H](C)Nc2ccc(Cl)nc2C(=O)O)c2cc(N3CCN(C4COC4)CC3)n(C)c(=O)c2c1 [Example 148]	–
–	–	–	–	0.5 to 2	> 15	0.001 to 0.5	> 15	Cc1cc(C(C)Nc2ccccc2C(=O)O)c2cc(N3CCN4CCC[C@@H]4C3)n(C)c(=O)c2c1 (single isomer, unassigned) [Example 137]	–
–	–	–	–	0.5 to 2	> 15	0.001 to 0.5	> 15	Cc1cc([C@@H](C)Nc2ccccc2C(=O)O)c2cc(OCC(F)(F)F)n(C)c(=O)c2c1 [Example 332]	–
–	–	–	–	2 to 15	2 to 15	0.5 to 2	> 15	Cc1cc([C@@H](C)Nc2nccnc2C(=O)O)c2cc(N3CCN(CC(F)(F)F)CC3)n(C)c(=O)c2c1 [Example 485]	–
> 15	–	> 15	–	–	> 15	–	> 15	Cc1cc(C(C)Nc2ccccc2C(=O)O)c2cc(N3CCN(C)CC3)n(C)c(=O)c2c1 (single isomer, unassigned) [Example 12, 2-((1-(2,7-dimethyl-3-(4-methylpiperazin-1-yl)-1-oxo-1,2-dihydroisoquinolin-5-yl)ethyl)amino)benzoic acid]	–
–	–	–	–	2 to 15	> 15	2 to 15	> 15	CC(=O)N1C[C@@H]2CN(c3cc4c(C(C)Nc5ccccc5C(=O)O)cc(C)cc4c(=O)n3C)C[C@H]2C1 (stereo partly drawn) [Example 87]	–
–	–	–	–	0.001 to 0.5	> 15	0.001 to 0.5	> 15	COCc1ncc(-c2cc3c([C@@H](C)Nc4ccccc4C(=O)O)cc(C)cc3c(=O)n2C)cc1F [Example 247]	–
–	–	–	–	0.001 to 0.5	2 to 15	0.001 to 0.5	> 15	C[C@@H](Nc1ccccc1C(=O)O)c1cc(F)cc2c(=O)n(C)c(C34CC(C(F)(F)C(F)(F)F)(C3)C4)cc12 [Example 571]	–
–	–	–	–	0.001 to 0.5	2 to 15	0.001 to 0.5	2 to 15	Cc1cc([C@@H](C)Nc2ccccc2C(=O)O)c2cc(N3CCN(c4ccc(C)nn4)CC3)n(C)c(=O)c2c1 [Example 551]	–
> 15	–	> 15	–	–	> 15	–	> 15	Cc1cc(C(C)Nc2ccccc2C(=O)O)c2cc(N3CCN4CCC[C@H]4C3)n(C)c(=O)c2c1 (single isomer, unassigned) [Example 138]	–
–	–	–	–	0.5 to 2	> 15	0.5 to 2	> 15	Cc1cc([C@@H](C)Nc2ccccc2C(=O)O)c2cc(-c3cnn(C4CC4)c3)n(C)c(=O)c2c1 [Example 212]	–
0.001 to 0.5	> 15	0.001 to 0.5	> 15	–	–	–	–	C[C@@H](Nc1ccccc1C(=O)O)c1cc(F)cc2c(=O)n(C)c(C3C[C@@H]3C3CC3)cc12 (single isomer, unassigned) [Example 450]	–
0.001 to 0.5	> 15	0.001 to 0.5	> 15	–	–	–	–	CC(Nc1ccccc1C(=O)O)c1cc(F)cc2c(=O)n(C)c(-c3ccc(OC4CC4)nc3)c(F)c12 (stereo not drawn) [Example 561]	–
> 15	–	> 15	–	–	> 15	–	> 15	Cc1cc(C(C)Nc2ccccc2C(=O)O)c2cc(N3CCN(C(=O)CC(C)C)CC3)n(C)c(=O)c2c1 (single isomer, unassigned) [Example 32, 2-((1-(2,7-dimethyl-3-(4-(3-methylbutanoyl)piperazin-1-yl)-1-oxo-1,2-dihydroisoquinolin-5-yl)ethyl)amino)benzoic acid]	–

Compound	EC50 ([1]; 72 hours) [µM]	EC50 ([2]; 72 hours) [µM]	IC50 [3, 5] [µM]	IC50 ([4]; 6 hours) [µM]	EC50 ([1]; Homo sapiens, T47D, 72 h) [µM]	EC50 ([2]; Homo sapiens, SK-BR-3, 72 h) [µM]	IC50 [3, 6] [µM]	IC50 ([4]; Homo sapiens, SK-BR-3, 6 h) [µM]	IC50 ([3]; read-out: Avg T-47D IC50; cellular pAKT, T47D cells, mutant PI3Ka (H1047R), 6 hours) [µM]
Cc1cc(C(C)Nc2ccccc2C(=O)O)c2cc(N3CCC(C)(C)CC3)n(C)c(=O)c2c1 (single isomer, unassigned) [Example 2, 2-((1-(3-(4,4-dimethylpiperidin-1-yl)-2,7-dimethyl-1-oxo-1,2-dihydroisoquinolin-5-yl)ethyl)amino)benzoic acid]	2 to 15	> 15	–	> 15	–	–	–	–	> 15
CC(Nc1ccccc1C(=O)O)c1cc(F)cc2c(=O)n(C)c(N3C4CCC3CN(CC(F)(F)F)C4)c(F)c12 (single isomer, unassigned) [Example 566]	2 to 15	–	> 15	> 15	–	2 to 15	–	–	–
